Measurements: ChEMBL document CHEMBL5465560, “Selectivity Literature for EUbOPEN Chemogenomic Library” (2024)

Assays:
[1] = biological target: TGF-beta receptor type-2 (Homo sapiens) (UniProt P37173); assay: Selectivity interaction (KinomeScan (DiscoverX)) EUB0001049a TGFBR2; details: at 1 µM
[2] = biological target: T1, Serine/threonine-protein kinase RIO3 (Homo sapiens) (UniProt O14730); assay: Selectivity interaction (KinomeScan (DiscoverX)) EUB0000229b RIOK3; details: at 10 µM
T1 sequence (whole entry): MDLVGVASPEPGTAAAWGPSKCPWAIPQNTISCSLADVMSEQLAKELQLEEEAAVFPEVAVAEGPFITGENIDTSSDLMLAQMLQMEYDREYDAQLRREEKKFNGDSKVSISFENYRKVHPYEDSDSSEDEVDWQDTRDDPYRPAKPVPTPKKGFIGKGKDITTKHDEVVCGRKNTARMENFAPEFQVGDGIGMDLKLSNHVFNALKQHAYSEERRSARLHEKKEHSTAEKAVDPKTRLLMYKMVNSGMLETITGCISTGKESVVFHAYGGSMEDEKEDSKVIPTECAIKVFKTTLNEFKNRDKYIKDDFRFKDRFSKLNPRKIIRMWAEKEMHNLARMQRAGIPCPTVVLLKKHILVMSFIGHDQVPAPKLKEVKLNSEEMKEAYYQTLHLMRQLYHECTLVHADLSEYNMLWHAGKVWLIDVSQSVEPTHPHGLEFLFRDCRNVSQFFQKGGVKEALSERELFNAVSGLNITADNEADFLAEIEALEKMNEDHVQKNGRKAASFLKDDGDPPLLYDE

[3] = biological target: Calcium/calmodulin-dependent protein kinase type II subunit beta (Homo sapiens) (UniProt Q13554); assay: Selectivity interaction (KinomeScan (DiscoverX)) EUB0001079a CAMK2B; details: at 1 µM
[4] = biological target: T2, Mixed lineage kinase domain-like protein (Homo sapiens) (UniProt Q8NB16); assay: Selectivity interaction (Kinase panel (KiNativ target engagement assay in Jurkat cells)) EUB0001635a MLKL; assay type: cell-based; details: at 1 µM
T2 sequence (whole entry): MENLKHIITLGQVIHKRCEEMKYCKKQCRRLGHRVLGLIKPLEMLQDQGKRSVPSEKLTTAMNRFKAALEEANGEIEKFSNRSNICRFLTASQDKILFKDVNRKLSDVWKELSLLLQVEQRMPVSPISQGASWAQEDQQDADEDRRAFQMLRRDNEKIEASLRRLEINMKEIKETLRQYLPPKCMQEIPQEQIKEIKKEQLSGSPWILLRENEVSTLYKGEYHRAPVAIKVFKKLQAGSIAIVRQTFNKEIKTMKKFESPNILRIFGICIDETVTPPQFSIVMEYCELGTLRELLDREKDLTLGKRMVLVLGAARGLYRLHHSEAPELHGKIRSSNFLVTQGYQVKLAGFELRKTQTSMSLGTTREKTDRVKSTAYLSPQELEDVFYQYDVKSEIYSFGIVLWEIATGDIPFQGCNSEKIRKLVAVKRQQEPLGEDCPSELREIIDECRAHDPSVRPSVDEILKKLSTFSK

[5] = biological target: T3, Mitogen-activated protein kinase kinase kinase 3 (Homo sapiens) (UniProt Q99759); assay: Selectivity interaction (ActivX KiNativ screen (kinase selectivity in THP-1 cell lysates)) EUB0000639a MAP3K3; assay type: subcellular; details: lysate, at 1 µM
T3 sequence (whole entry): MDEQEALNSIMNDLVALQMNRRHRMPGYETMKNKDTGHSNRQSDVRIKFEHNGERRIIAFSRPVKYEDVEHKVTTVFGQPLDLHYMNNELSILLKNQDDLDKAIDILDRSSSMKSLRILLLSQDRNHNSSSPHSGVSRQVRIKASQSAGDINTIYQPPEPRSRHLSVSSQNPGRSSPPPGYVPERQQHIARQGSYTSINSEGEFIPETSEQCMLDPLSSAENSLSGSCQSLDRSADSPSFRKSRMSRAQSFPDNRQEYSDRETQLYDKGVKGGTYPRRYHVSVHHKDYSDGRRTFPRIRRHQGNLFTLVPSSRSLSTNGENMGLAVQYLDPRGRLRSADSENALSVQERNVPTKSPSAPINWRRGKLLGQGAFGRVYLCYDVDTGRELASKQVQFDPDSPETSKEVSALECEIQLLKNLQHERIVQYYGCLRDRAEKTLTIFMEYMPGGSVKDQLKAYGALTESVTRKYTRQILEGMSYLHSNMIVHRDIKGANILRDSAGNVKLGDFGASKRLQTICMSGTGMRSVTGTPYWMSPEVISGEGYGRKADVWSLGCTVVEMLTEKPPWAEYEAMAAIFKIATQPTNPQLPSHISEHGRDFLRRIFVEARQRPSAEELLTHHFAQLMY

[6] = biological target: Serine/threonine-protein kinase 38 (Homo sapiens) (UniProt Q15208); assay: Selectivity interaction (Ambit KINOMEscan and KiNATiv profiling in Jurkat cells) EUB0000090b STK38; assay type: cell-based; details: at 1 µM
[7] = biological target: Rho-associated protein kinase 2 (Homo sapiens, UniProt O75116); assay: Selectivity interaction (Ambit KINOMEscan and KiNATiv profiling in Jurkat cells) EUB0000090b ROCK2; assay type: cell-based; details: at 1 µM
[8] = biological target: 3',5'-cyclic-AMP phosphodiesterase 4A (Homo sapiens, UniProt P27815); assay: Selectivity interaction (Enzyme panel (AstraZeneca, AlphaScreen, functional assay)) EUB0000621a PDE4A
[9] = biological target: LIM domain kinase 2 (Homo sapiens) (UniProt P53671); assay: Selectivity interaction (KinomeScan (DiscoverX)) EUB0001619a LIMK2; details: at 1 µM
[10] = biological target: Cyclin-dependent kinase 15 (Homo sapiens) (UniProt Q96Q40); assay: Selectivity interaction (KinomeScan (DiscoverX)) EUB0001619a CDK15; details: at 1 µM
[11] = biological target: Ribosomal protein S6 kinase alpha-3 (Homo sapiens, UniProt P51812); assay: Selectivity interaction (ActivX KiNativ screen (ex vivo kinase selectivity in human PBMCs)) EUB0001619a RPS6KA3; assay type: cell-based; details: PBMC, at 1 µM
[12] = biological target: Protein kinase C gamma type (Homo sapiens) (UniProt P05129); assay: Selectivity interaction (ProQinase) EUB0000171b PRKCG
[13] = biological target: Rho-associated protein kinase 1 (Homo sapiens) (UniProt Q13464); assay: Selectivity interaction (ProQinase) EUB0000171b ROCK1
Sequence of Rho-associated protein kinase 1 (Homo sapiens) (Q13464 2-1354 limits assumed): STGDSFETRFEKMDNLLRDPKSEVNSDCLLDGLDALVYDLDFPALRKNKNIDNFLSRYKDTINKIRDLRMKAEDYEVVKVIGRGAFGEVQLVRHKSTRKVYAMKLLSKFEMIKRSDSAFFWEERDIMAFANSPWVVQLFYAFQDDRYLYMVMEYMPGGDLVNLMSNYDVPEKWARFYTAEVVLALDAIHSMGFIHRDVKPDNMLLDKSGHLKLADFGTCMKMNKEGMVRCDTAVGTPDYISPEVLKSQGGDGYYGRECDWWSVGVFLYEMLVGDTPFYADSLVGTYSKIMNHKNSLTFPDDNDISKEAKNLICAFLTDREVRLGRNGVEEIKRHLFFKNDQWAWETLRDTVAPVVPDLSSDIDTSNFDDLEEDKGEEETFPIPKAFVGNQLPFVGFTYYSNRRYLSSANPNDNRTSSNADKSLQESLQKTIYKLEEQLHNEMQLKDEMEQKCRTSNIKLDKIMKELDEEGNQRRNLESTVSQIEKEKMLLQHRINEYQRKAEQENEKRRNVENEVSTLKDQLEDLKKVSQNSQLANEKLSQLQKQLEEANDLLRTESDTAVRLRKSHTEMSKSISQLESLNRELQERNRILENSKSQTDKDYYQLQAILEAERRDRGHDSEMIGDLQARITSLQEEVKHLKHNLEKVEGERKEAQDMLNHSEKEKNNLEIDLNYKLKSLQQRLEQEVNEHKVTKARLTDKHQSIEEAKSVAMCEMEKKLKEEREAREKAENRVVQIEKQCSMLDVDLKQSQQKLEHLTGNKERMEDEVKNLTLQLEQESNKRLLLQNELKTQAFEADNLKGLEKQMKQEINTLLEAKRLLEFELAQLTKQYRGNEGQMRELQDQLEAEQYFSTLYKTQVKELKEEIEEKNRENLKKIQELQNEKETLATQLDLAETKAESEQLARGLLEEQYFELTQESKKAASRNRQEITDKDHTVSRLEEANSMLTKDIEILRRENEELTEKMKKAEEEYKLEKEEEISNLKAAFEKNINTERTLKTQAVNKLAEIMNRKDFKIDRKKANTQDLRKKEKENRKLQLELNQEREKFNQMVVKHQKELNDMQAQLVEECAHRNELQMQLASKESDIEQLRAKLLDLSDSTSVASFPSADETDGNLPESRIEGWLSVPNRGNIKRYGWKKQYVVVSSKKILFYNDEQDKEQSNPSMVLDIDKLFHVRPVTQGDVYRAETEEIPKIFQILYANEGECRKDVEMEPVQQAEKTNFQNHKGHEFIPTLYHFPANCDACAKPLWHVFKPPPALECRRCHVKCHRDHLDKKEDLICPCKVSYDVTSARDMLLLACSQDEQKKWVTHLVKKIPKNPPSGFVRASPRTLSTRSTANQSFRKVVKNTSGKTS

Sequence of Serine/threonine-protein kinase 38 (Homo sapiens) (Q15208 2-465 limits assumed): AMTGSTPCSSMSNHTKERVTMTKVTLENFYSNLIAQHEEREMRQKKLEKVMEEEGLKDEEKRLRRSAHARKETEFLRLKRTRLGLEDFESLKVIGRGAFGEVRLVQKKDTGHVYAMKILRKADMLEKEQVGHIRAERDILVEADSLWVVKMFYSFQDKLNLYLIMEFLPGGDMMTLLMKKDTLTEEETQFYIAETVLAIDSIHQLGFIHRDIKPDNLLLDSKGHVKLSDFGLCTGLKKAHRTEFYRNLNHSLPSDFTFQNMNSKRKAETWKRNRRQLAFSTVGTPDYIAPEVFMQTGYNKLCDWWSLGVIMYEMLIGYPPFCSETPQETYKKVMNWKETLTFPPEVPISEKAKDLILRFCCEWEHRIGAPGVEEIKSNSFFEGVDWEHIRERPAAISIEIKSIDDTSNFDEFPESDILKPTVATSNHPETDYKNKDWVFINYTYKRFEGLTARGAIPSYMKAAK
Sequence of LIM domain kinase 2 (Homo sapiens) (P53671 whole entry, looked up, the tested form may be a part): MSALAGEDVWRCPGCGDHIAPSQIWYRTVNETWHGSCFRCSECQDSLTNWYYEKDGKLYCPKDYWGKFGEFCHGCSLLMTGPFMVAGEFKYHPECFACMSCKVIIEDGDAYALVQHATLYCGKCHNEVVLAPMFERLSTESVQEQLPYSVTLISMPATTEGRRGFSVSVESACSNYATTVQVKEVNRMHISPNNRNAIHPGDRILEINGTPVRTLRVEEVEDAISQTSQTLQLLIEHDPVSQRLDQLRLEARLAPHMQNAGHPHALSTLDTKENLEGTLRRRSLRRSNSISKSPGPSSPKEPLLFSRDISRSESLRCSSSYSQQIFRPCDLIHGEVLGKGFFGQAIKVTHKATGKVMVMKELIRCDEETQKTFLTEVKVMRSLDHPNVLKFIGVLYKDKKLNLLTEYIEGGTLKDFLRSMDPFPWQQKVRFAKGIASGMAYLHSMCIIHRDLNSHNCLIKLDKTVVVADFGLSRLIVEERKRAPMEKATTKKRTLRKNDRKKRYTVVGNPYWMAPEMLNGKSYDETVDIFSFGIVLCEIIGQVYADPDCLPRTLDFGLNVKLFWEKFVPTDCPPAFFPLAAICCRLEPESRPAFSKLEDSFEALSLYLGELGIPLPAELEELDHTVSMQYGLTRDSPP
Sequence of Calcium/calmodulin-dependent protein kinase type II subunit beta (Homo sapiens) (Q13554 whole entry, the tested form may be a part): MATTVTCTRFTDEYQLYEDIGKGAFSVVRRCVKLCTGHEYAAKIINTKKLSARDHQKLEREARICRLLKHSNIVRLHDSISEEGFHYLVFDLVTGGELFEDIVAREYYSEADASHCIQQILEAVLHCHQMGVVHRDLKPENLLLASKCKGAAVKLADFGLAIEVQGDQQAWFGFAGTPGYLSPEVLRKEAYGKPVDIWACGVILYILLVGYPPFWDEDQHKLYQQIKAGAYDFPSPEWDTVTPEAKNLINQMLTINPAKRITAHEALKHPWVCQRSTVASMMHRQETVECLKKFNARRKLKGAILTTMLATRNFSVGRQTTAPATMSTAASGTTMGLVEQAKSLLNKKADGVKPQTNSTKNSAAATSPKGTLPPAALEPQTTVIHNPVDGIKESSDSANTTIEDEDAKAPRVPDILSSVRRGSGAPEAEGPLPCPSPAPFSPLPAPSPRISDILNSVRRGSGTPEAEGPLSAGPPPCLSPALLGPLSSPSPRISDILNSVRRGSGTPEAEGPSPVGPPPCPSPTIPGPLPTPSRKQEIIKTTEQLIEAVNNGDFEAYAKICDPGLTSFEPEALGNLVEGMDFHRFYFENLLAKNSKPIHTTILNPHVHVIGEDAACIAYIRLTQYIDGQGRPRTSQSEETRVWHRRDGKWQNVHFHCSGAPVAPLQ
Sequence of TGF-beta receptor type-2 (Homo sapiens) (P37173 whole entry): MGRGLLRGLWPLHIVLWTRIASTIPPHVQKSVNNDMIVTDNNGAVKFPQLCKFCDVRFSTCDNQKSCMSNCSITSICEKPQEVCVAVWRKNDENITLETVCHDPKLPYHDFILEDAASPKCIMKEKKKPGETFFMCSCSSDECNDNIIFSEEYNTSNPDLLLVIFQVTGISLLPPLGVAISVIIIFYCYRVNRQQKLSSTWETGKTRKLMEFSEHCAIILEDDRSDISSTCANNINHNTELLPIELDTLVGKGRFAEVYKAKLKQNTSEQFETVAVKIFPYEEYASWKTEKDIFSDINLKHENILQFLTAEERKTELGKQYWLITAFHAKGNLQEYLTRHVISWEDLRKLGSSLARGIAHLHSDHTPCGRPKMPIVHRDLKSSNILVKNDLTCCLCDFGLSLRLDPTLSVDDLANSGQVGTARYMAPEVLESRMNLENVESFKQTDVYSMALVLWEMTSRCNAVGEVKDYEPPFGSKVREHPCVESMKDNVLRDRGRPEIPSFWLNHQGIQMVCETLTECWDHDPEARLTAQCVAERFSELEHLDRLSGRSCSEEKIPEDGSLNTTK
Sequence of Cyclin-dependent kinase 15 (Homo sapiens) (Q96Q40 whole entry): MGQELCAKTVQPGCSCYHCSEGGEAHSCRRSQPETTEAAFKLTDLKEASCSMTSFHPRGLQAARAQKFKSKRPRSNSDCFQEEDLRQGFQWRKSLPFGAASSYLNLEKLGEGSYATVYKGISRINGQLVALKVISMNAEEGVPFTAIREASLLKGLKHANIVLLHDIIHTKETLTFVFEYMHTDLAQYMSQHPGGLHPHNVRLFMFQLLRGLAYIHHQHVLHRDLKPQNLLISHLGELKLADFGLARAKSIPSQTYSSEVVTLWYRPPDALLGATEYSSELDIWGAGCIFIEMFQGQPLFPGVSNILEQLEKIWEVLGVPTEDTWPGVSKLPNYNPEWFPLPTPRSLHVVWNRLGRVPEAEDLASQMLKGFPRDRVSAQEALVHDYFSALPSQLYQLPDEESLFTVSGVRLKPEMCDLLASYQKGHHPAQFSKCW

COc1cc(Nc2nc(C)cc(-c3cnn4nc(OC)ccc34)n2)cc(C(F)(F)F)c1
% of control [1]: 100%

COc1cc(N(C)c2ccnc3ccc(C(F)(F)F)cc23)cc(OC)c1OC
% binding [2]: 90%

Nc1cnc(N2CCc3cc(S(=O)(=O)Nc4c(F)cc(Cl)cc4F)cc(N4CCCC4=O)c32)nc1 [TP-020n]
% of control [3]: 100%

C=CC(=O)Nc1ccc(C(=O)Nc2[nH]nc3c2CN(C(=O)N[C@H](CN(C)C)c2ccccc2)C3(C)C)cc1
% of engagement [4]: 5.6%

CC[C@@H]1[C@H](F)C(=O)N[C@@H]1COc1nccc2cc(C(N)=O)c(OC)cc12 [ZIMLOVISERTIB]
% of inhibition [5]: -7.9%

CN(C)C/C=C/C(=O)Nc1ccc(C(=O)N2CCCC(Nc3ncc(Cl)c(-c4c[nH]c5ccccc45)n3)C2)cc1 (stereo not given)
% of control [6]: 100%
% of control [7]: 69%

Cc1cc([C@@H](C)Nc2ccccc2C(=O)O)c2nc(N3CCOCC3)cc(=O)n2c1 [AZD-6482]
IC50 [8]: 17 µM

N#Cc1cccc(-c2c[nH]c3ncnc(N4CCOCC4)c23)c1
% of control [9]: 96%
% of control [10]: 100%
% of inhibition [11]: -11%

C=CC(=O)Nc1cccc(C(=O)Nc2ccc(Nc3cc(-c4[nH]c(SC)nc4C)ccn3)cc2)c1
% of control ([12]; at 1 µM): 88%
% of control ([12]; at 5 µM): 100%
% of control ([13]; at 1 µM): 104%
% of control ([13]; at 5 µM): 80%
